This is an account of results in PubChem BioAssay AID344 (DTP/NCI, 2004).

Structures are written as SMILES. Toxic doses and inconclusive results are not listed.

The subject of this assay is mice, LPC-1 plasma cell tumor ip, median survival T/C. Put plainly: NCI In Vivo Anticancer Drug Screen. Data for tumor model Lieberman Plasma Cell No. 1 (LPC-1) (intraperitoneal) in unknown mice. The settings on record: endpoint: median survival time, higher = longer survival. Here is the method: The antitumor activity of compounds was measured in mice bearing transplantable tumors. Survival or tumor size were measured and the results are expressed as the measurement made in the treated group (T) divided by the measurement made in the vehicle treated control group (C). The tumor model used in this assay is Lieberman Plasma Cell No. 1 (LPC-1) (intraperitoneal) in unknown mice

The mark [1] stands for this setting: dose: 50.0 mg/kg/injection, schedule: Q01DX009 (sc), vehicle: saline.
Setting [2] is: dose: 100.0 mg/kg/injection, schedule: Q01DX009 (sc), vehicle: saline.
Where [3] appears, read: dose: 200.0 mg/kg/injection, schedule: Q01DX009 (sc), vehicle: saline.
Where [4] appears, read: dose: 400.0 mg/kg/injection, schedule: Q01DX009 (sc), vehicle: saline.
Where [5] appears, read: dose: 2.5 mg/kg/injection, schedule: Q01DX028 (sc), vehicle: carboxymethylcellulose (CMC).
Where [6] appears, read: dose: 5.0 mg/kg/injection, schedule: Q01DX028 (sc), vehicle: carboxymethylcellulose (CMC).
Where [7] appears, read: dose: 10.0 mg/kg/injection, schedule: Q01DX028 (sc), vehicle: carboxymethylcellulose (CMC).

For `Nc1cc2ncccc2c2ncccc12`, the T/C is 104 % of control (dose: 37.5 mg/kg/injection, schedule: Q01DX028 (sc), vehicle: steriod suspending solution); 104 % of control (dose: 75.0 mg/kg/injection, schedule: Q01DX028 (sc), vehicle: steriod suspending solution); 112 % of control (dose: 150.0 mg/kg/injection, schedule: Q01DX028 (sc), vehicle: steriod suspending solution).
As to `CS(=O)(=O)OCCCCCOS(C)(=O)=O`, the T/C runs as follows: (dose: 10.0 mg/kg/injection, schedule: Q01DX028 (sc), vehicle: water) 107 % of control; (dose: 40.0 mg/kg/injection, schedule: Q01DX028 (sc), vehicle: water) 107 % of control; (dose: 44.0 mg/kg/injection, schedule: Q01DX028 (sc), vehicle: carboxymethylcellulose (CMC)) 120 % of control.
On to `Cc1c2c(c(C)c3c1OC(C)(C)CC3)OC(C)(C)CC2`, for which the T/C is, setting by setting: under setting [1], 104 % of control; under setting [2], 97 % of control; under setting [3], 95 % of control; under setting [4], 90 % of control.
With `O=c1[nH]c(=O)n(C2CC(O)C(CO)O2)cc1C(F)(F)F` (configuration not stated), the T/C was 102 % of control (dose: 50.0 mg/kg/injection, schedule: Q01DX028 (sc), vehicle: water); 100 % of control (dose: 100.0 mg/kg/injection, schedule: Q01DX028 (sc), vehicle: water); 100 % of control (dose: 200.0 mg/kg/injection, schedule: Q01DX028 (sc), vehicle: water); 97 % of control (dose: 400.0 mg/kg/injection, schedule: Q01DX028 (sc), vehicle: water).
As to `N=[N+]=CC(=O)OCC(N)C(=O)O` (configuration not stated), the T/C by setting is: (dose: 1.8 mg/kg/injection, schedule: Q01DX028 (sc), vehicle: water) 89 % of control; (dose: 3.0 mg/kg/injection, schedule: Q01DX028 (sc), vehicle: water) 102 % of control; (dose: 14.0 mg/kg/injection, schedule: Q01DX028 (sc), vehicle: water) 97 % of control.
In the case of `N=C(N)SCc1c2ccccc2c(CSC(=N)N)c2ccccc12`, the T/C reads like this: under setting [5], 97 % of control; under setting [6], 112 % of control; under setting [7], 95 % of control; (dose: 20.0 mg/kg/injection, schedule: Q01DX028 (sc), vehicle: carboxymethylcellulose (CMC)) 117 % of control; (dose: 40.0 mg/kg/injection, schedule: Q01DX028 (sc), vehicle: carboxymethylcellulose (CMC)) 115 % of control.
`CS(=O)(=O)OCCCCOS(C)(=O)=O`: the T/C is, setting by setting: (dose: 1.25 mg/kg/injection, schedule: Q01DX028 (sc), vehicle: carboxymethylcellulose (CMC)) 92 % of control; under setting [5], 102 % of control; under setting [6], 102 % of control; under setting [7], 123 % of control.
Take `NC(Cc1ccc(N(CCCl)CCCl)cc1)C(=O)O` (configuration not stated): the T/C was 180 % of control (dose: 2.0 mg/kg/injection, schedule: Q01DX028 (sc), vehicle: methylcellulose (MC)); 155 % of control (dose: 4.0 mg/kg/injection, schedule: Q01DX028 (sc), vehicle: methylcellulose (MC)); 108 % of control (dose: 8.0 mg/kg/injection, schedule: Q01DX028 (sc), vehicle: methylcellulose (MC)).
`CC1(C)CC2(CC(C)(C)Oc3cc(O)ccc32)c2ccc(O)cc2O1`: the T/C is 100 % of control (dose: 50.0 mg/kg/injection, schedule: Q01DX008 (sc), vehicle: saline); 97 % of control (dose: 100.0 mg/kg/injection, schedule: Q01DX008 (sc), vehicle: saline); 97 % of control (dose: 200.0 mg/kg/injection, schedule: Q01DX008 (sc), vehicle: saline); 92 % of control (dose: 400.0 mg/kg/injection, schedule: Q01DX008 (sc), vehicle: saline).
As for `CC(=O)[C@H]1CC[C@H]2[C@@H]3C[C@H](C)C4=CC(=O)CC[C@]4(C)[C@H]3C(=O)C[C@]12C`, the T/C runs as follows: (dose: 108.0 mg/kg/injection, schedule: Q01DX028 (sc), vehicle: carboxymethylcellulose (CMC)) 102 % of control; (dose: 180.0 mg/kg/injection, schedule: Q01DX028 (sc), vehicle: carboxymethylcellulose (CMC)) 100 % of control; (dose: 300.0 mg/kg/injection, schedule: Q01DX028 (sc), vehicle: carboxymethylcellulose (CMC)) 97 % of control; (dose: 500.0 mg/kg/injection, schedule: Q01DX028 (sc), vehicle: carboxymethylcellulose (CMC)) 97 % of control.
In the case of `O=NN(CCF)C(=O)NC1CCCCC1`, the T/C (dose: 33.0 mg/kg/injection, schedule: Q01DX028 (sc), vehicle: carboxymethylcellulose (CMC)) is 97 % of control.
In the case of `Cn1c2ccccc2c(=O)c2c(O)cc3c(c21)C=C(Br)C(C)(C)O3`, the T/C by setting is: (dose: 9.38 mg/kg/injection, schedule: Q01DX028 (sc), vehicle: carboxymethylcellulose (CMC)) 97 % of control; (dose: 18.75 mg/kg/injection, schedule: Q01DX028 (sc), vehicle: carboxymethylcellulose (CMC)) 97 % of control; (dose: 37.5 mg/kg/injection, schedule: Q01DX028 (sc), vehicle: carboxymethylcellulose (CMC)) 107 % of control; (dose: 75.0 mg/kg/injection, schedule: Q01DX028 (sc), vehicle: carboxymethylcellulose (CMC)) 97 % of control; (dose: 150.0 mg/kg/injection, schedule: Q01DX028 (sc), vehicle: carboxymethylcellulose (CMC)) 95 % of control.
As to `COc1cc2cccnc2c2[nH]ccc(=O)c12`, the T/C by setting is: under setting [1], 100 % of control; under setting [2], 92 % of control; under setting [3], 102 % of control; under setting [4], 104 % of control.
